Measurements published in US20090208597A1, “HEAT PROCESSED VEGETABILIC FIBER PREPARATION AND ITS USE AS INHIBITOR OF THE EFFECTS OF CARCINOGENIC SUBSTANCES IN HUMANS OR ANIMALS” (ESSENTYS AB, priority 2006, published 2009).

Tests used:
[1] = test system: small intestine of male BALB mice; experiment: Povex in food of mice treated with acrylamide, histomorphometry of small intestine (Example 4); format: in vivo
Method: The aim of this study was to investigate if regular and heat Povex can protect small intestine against acrylamide toxic influence. The point was to establish what histological changes can acrylamide cause to small intestine tissue and if Povex can reverse or decrease these possible changes.
Three months experiment was performed on males BALB mince. Two doses of acrylamide (2 mg/day/kg b.w., and 0.1 mg/day/kg b.w.) in drinking water and two types of Povex heated (Treated) and normal (Untreated) added to food were provided for animals.
Histology and histomorphometry of small intestine was performed. The examined parameters were: fractal dimension of small intestine, mitosis inside crypts and apoptosis count per mm^2 of tissue.
Seventy-five 9-weeks old male and seventy-five 7 to 9 weeks old female BALB mice (Laboratory), weighing about 20 g, were used in whole experiment. Mice were housed ten per box of the same sex. This part of experiment and analysis obtained from is made on twenty eight male BALB mice.
Three types of formulated mixtures were manufactured: • Labodiet MLF control. The receipt of this food is based on the energy needs according to the Polish norm for feeding domestic animals. • Labodiet MLF 2% n Povex. The receipt of this food is based one the control one. The food was enriched with 2% of Povex. • Labodiet MLF 2% praz Povex. The receipt of this food is based one the control one. The food was enriched with 2% of heated Povex till 160° C.
Before the beginning of the experiment, we measured water consumption in 24 hours of 5 groups of mice. The average of daily-consumption was 10 mL/day/kg b.w. This consumption was used to calculate the concentration of the two doses of acrylamide: The high dose was calculated from 2 mg/day/kg b.w. and the low dose from 0.1 mg/day/kg b.w. The first dilution of acrylamide in tap water was made directly with the powder and 3 L of both concentrations were prepared. […] The volume left in the bottle was measured and put in a table to follow the consumption of acrylamide through the water. […]

BALB mice = experiment: Potato fiber supplemented diet in acryl amide exposed mice, histomorphology of intestine and liver (Example 1); format: in vivo; details: acryl amide added to the drinking water; 90 days
Method: The main aim of these studies was to see if a potato fiber supplemented diet had any effect on acryl amide induced cancer development in mice.
Seventy five 9-weeks old male and seventy five 7 to 9 weeks old female BALB mice (Laboratory), weighing about 20 g, were used. Mice were housed ten per box of the same sex. Solid food and water were allowed in sufficient quantities. The animals were kept in an animal house where the humidity and temperature were controlled and where a 12 h light period was kept. The experiment has been reviewed and approved by Lund University ethic committee, application M140-03.
2/ Labodiet MLF 2% and potato fiber preparation (Povex®). The receipt of this food/feed is based on the control food/feed. The food/feed was enriched with 2% of Povex®.
3/ Labodiet MLF 2% heated potato fiber preparation (Povex®). […]
It was found suitable to use the commercial (Sigma-Aldrich, St Louis, Mo.) acryl amide for electrophoresis in the form of powder (minimum 99%). […] Before the beginning of the experiment, the water consumption during 24 h of 5 groups of mice was measured. […] This consumption was used to calculate the concentration of the two doses of acryl amide: The high dose was calculated from 2 mg/day/kg b.w. and the low dose from 0.1 mg/day/kg b.w. […] The volume left in the bottle was measured and listed in a table in order to follow the consumption of acryl amide through the water. […]

C=CC(N)=O [Acryl amide, acryl amide]
number of mitosis inside small intestine crypt ([1]; small and large dose of AA with standard food vs control group): significant decrease | number of apoptosis/mm^2 in small intestine tissue ([1]; standard food + large or low dose of AA): elevated number of apoptotic cells | fractal dimension of small intestine mucosa ([1]; standard food and low dose of AA (0.1 mg) vs control group): difference between control group and animals getting standard food and low dose of AA | histomorphological parameters of the intestine and liver (BALB mice): affected a majority of the measured histomorphological parameters
